Experimental data as given in patent US20250360071A1, “AGENT FOR INDUCING CILIUM” (MED R&D Co. Ltd, priority 2022, published 2025).

Columns and labels:
HFDPCs = assay: Co-culture system of Caco-2 and HFDPC, hair growth marker expression, Experimental Example 4; format: cell-based, human; details: added inside the Caco-2 insert; saponin mixture 5 μg/mL, finasteride 10 μM; after 2, 6 and 12 hours; vs control
Protocol: An examination was carried out using a co-culture system of Caco-2 and an HFDPC which are human intestinal epithelial cell lines. FIG. 8 is a schematic view illustrating a co-culture system of the present Experimental Example. […] A permeable membrane having a pore size of […] was disposed on the bottom surface of the 96-well insert. […] In a case where the drug is permeable to the intestinal epithelial cells, with the addition of the drug into the inside of the transwell insert of the co-culture system, the drug permeates from the apex side (lumen side) to the basal side (vascular side) of the Caco-2 cells. Furthermore, the drug that permeated acts on the HFDPCs seeded on the receiver plate. A mixture in which each saponin was mixed at a ratio shown in Table 1 below (which may hereinafter be referred to as a “saponin mixture”) was used as a sample for the examination. The saponin mixture was added to the inside of the transwell insert of the co-culture system so that a concentration thereof was 5 μg/mL. Subsequently, the expression of the hair growth marker in the HFDPCs seeded on the receiver plate was measured by quantitative real-time PCR after 2 hours, 6 hours, and 12 hours. As the hair growth markers, a CTNNB1 gene (β-catenin), an ALPL gene (alkaline phosphatase), and an FGF1 gene (fiblobrast growth factor 1) were measured. […]

C3H male mouse = assay: Hair growth promoting effect in vivo, application to depilated dorsal skin, Experimental Example 5
Protocol: The oleanane-type triterpenoid was applied to the dorsal skin of a mouse and the hair growth promoting effect was examined. Maslinic acid was used as the oleanane-type triterpenoid. In addition, for comparison, a group in which minoxidil was used and a control group in which only a solvent was applied were prepared.
FIG. 12 is a schematic view showing an experimental schedule. After acclimatization of a C3H male mouse, the dorsal skin was depilated with a shaver and a depilatory cream. Thereafter, 150 μL of 1% minoxidil (n=8), 1% maslinic acid (n=6), or a solvent (n=8) was applied to the mouse in each group every day for 20 days, and the mouse was observed over time.
It is known that the hair cycle of a mouse has three stages of an anagen, a catagen, and a telogen. During the anagen (the 1st day to the 16th day), the hair follicle grows into the deep subcutaneous part. In the catagen (the 17th day to the 19th day), the hair follicle stops growing and regresses to the upper subcutaneous part. In the telogen (the 20th day to the 29th day), the hair shaft is in a state where it can be lost at any time. It is known that the color of the dorsal skin of a mouse changes to pink, gray, and black due to the hair cycle. FIG. 13 is a view showing a change in the color of the dorsal skin of a mouse due to the hair cycle.

dorsal skin [1] = assay: Transcriptome analysis and extended network analysis of dorsal skin, Experimental Examples 6 and 8; format: in vivo, mouse; details: 20th day, 1% applied daily; maslinic acid group vs tieghemelin group
Protocol: A mouse in each group of Experimental Example 5 and a mouse in the group which had been subjected to the same treatment as in Experimental Example 5 using 1% tieghemelin (n=6) were euthanized on the 20th day, and the dorsal skin was collected and subjected to transcriptome analysis.
(§1) Extended network analysis was performed based on the results of the transcriptome analysis in Experimental Example 6. FIGS. 20 to 22 are views showing the results of the extended network analysis. FIG. 20 is an analysis result obtained from a dataset of the minoxidil treatment group, FIG. 21 is an analysis result obtained from a dataset of the maslinic acid treatment group, and FIG. 22 is an analysis result obtained from a dataset of the tieghemelin treatment group. In FIGS. 20 to 22, a white circle indicates a gene with increased expression, and a black circle indicates a gene with decreased expression. In addition, the size of the circle indicates the magnitude of a change in expression level.

dorsal skin [2] = assay: Gene ontology (GO), GO enrichment and tissue-specific expression analysis of transcriptome, Experimental Example 7; format: in vivo, mouse; details: 20th day
Protocol: Gene ontology (GO) analysis and GO enrichment analysis were performed based on the results of the transcriptome analysis in Experimental Example 6.
Subsequently, term enrichment analysis of the genes with expression increased specifically with respect to the skin tissue was performed. Using tissue-specific expression analysis (TSEA), genes related to the skin tissue were filtered, and functions that were specifically enriched in the maslinic acid treatment group and the tieghemelin treatment group and were not enriched in the minoxidil treatment group were selected.

Iqcb1 = Iqcb1 expression from transcriptome / extended network analysis, Experimental Example 8; format: in vivo, mouse; details: dorsal skin, 20th day, 1% applied daily
Protocol: as §1
DDX58 is an innate immune receptor that senses viral nucleic acids in the cytoplasm and activates a downstream signal transduction cascade leading to the production of type I interferons or inflammatory cytokines. IQCB1 is a protein known to be involved in formation of cilium.

hair cycle-related genes = assay: Fluctuation in expression of hair cycle-related genes from transcriptome, Experimental Example 9; format: in vivo, mouse; details: dorsal skin, 20th day
Text: A fluctuation in expression of the hair cycle-related genes was examined, based on the results of the transcriptome analysis in Experimental Example 6.

dorsal skin [3] = assay: Fluorescence immunostaining of dorsal skin tissue sections, Experimental Example 10; format: in vivo, mouse; details: 20th day
Text: A mouse in each group of Experimental Examples 5 and 6 was euthanized on the 20th day, the dorsal skin was collected, and the tissue section was subjected to immunostaining.
FIG. 23 is a photomicrograph showing the results of detecting the expressions of β-catenin and K14 by fluorescence immunostaining. In addition, the nuclei were stained with 4′,6-diamidino-2-phenylindole (DAPI). The β-catenin is a hair growth promoting marker and is also a marker for the start of the anagen. K14 is an epidermal marker and is known to increase with the differentiation of hair follicle stem cells.
FIG. 24 is a photomicrograph showing the results of detecting the expression of VEGF by fluorescence immunostaining. In addition, the nuclei were stained with DAPI. VEGF is known to improve the vascularization of hair follicles, increase the size of hair follicles and hair, and promote the growth and circulation of hair follicles.

[4] = fluorescence immunostaining, dorsal skin

Structure (SMILES): CC(C)(C)NC(=O)[C@H]1CC[C@H]2[C@@H]3CC[C@H]4NC(=O)C=C[C@]4(C)[C@H]3CC[C@]12C [finasteride]
- expression of the hair growth marker (CTNNB1, ALPL, FGF1) in HFDPCs (HFDPCs): induced the expression of the hair growth marker regardless of the treatment time

Structure (SMILES): CC1(C)CC[C@]2(C(=O)O)CC[C@]3(C)C(=CC[C@@H]4[C@@]5(C)C[C@@H](O)[C@H](O)C(C)(C)[C@@H]5CC[C@]43C)[C@@H]2C1 [maslinic acid]
- black area indicating the late anagen, vs control group (C3H male mouse; 10th day, 1% applied daily): larger black area
- speed of a transition from the telogen to the anagen (order) (C3H male mouse; 10th day, 1% applied daily): Minoxidil≈Maslinic acid>Control group
- hair cycle stage observed on the 20th day (C3H male mouse; 20th day, 1% applied daily): transitioned to the next telogen
- speed of transition to the telogen after the anagen and the catagen (order) (C3H male mouse; 20th day, 1% applied daily): Minoxidil=Maslinic acid>Control group
- hair cycle stage observed on the 10th day (C3H male mouse; 150 μL of 1% applied daily, control transitioned from telogen to anagen on the 10th day): transition to the late anagen
- influence on the body weight of the mouse (C3H male mouse; 150 μL of 1% applied to dorsal skin every day for 20 days): No influence on the body weight
- pattern of differentially expressed genes in the dorsal skins (dorsal skin [1]): showed the same pattern
- number of genes with decreased expression common among the minoxidil, maslinic acid and tieghemelin treatment groups (dorsal skin [2]): 316
- number of genes with decreased expression common between the minoxidil and maslinic acid treatment groups (dorsal skin [2]): Seventy-two
- number of genes with increased expression common among the minoxidil, maslinic acid and tieghemelin treatment groups (dorsal skin [2]): 342
- number of genes with increased expression common between the minoxidil and maslinic acid treatment groups (dorsal skin [2]): Eighty-one
- functions specifically enriched among skin-tissue genes with increased expression (TSEA) (dorsal skin [2]; functions not enriched in the minoxidil treatment group): skin barriers, keratinocytes, proliferation of epithelial cells, pigmentation, and interactions between cytokines and cytokine receptors
- Iqcb1 expression (Iqcb1): upregulated
- expression level of Iqcb1 compared with the minoxidil treatment group (Iqcb1): increased more
- expression level of BMP4 (hair cycle-related genes): decreased
- expression of NF-κB (hair cycle-related genes): decreased
- sizes of the hair follicle and the hair shaft (dorsal skin [3]; dorsal skin section): increased
- expression of K14 (dorsal skin [3]; [4]): increase in the expression
- expression of VEGF (dorsal skin [3]; [4]): increased
- expression of β-catenin (dorsal skin [3]; [4]): increase in the expression
